Results taken from patent publication US20070086956A1, “Method for accelerating the rate of mucociliary clearance” (BAYER AKTIENGESELLSCHAFT, priority 1998, published 2007).

Columns and labels:
[1] = biological target: bovine pancreatic kallikrein; assay: Inhibition of bovine pancreatic kallikrein, Ki; type: biochemical; conditions: Table 4A; Bovine Pancreatic Kallikrein (92.0 pM)
Description: After 5 min. at 37° C., 15 μl of 2 mM GPK-AMC was added and the change in fluorescence (as above) was monitored. […] After 5 min. incubation at 37° C., 25 μl of 20 mM GPK-AMC was added and the change in fluorescence monitored. […] After 5 min. at 37° C. 15 μl of 20 mM PFR-AMC was added and the change in fluorescence monitored.

[2] = biological target: T1, human neutrophil elastase (Homo sapiens, UniProt P08246); assay: Inhibition of human neutrophil elastase, Ki (Dixon plots); type: biochemical; conditions: Table 4A; elastase
T1 sequence (P08246 30-267): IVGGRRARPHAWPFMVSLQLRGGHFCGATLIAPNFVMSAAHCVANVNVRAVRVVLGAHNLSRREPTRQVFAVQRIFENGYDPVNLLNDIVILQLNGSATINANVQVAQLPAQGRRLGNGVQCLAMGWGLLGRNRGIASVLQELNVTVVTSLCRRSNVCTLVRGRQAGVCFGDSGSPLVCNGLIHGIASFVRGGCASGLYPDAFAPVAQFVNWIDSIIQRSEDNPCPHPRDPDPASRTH
Description: […] Ki values were determined from Dixon plots of the form 1/V versus performed at two different substrate concentrations (Dixon et al., 1979).

[3] = Isoelectric point by isoelectric focusing; type: physicochemical
Description: After staining, the migration distance from the cathodic edge of the gel to the different protein bands was measured. The pI of each unknown was determined by using a standard curve generated by a plot of the migration distance of standards versus the corresponding pI's. […] (Tenstad et al., 1994, Acta Physiol. Scand. 152: 33-50).

Q: Which results are given for `CC[C@H](C)[C@H](N)C(=O)N[C@@H](Cc1c[nH]cn1)C(=O)N[C@@H](CC(=O)O)C(=O)N[C@@H](Cc1ccccc1)C(=O)N[C@H]1CSSC[C@@H](C(=O)N[C@@H](C)C(=O)N[C@H](C(=O)N[C@H](C(=O)O)C(C)C)[C@@H](C)O)NC(=O)[C@H](CCCCN)NC(=O)[C@H](CCCCN)NC(=O)[C@H](CC(C)C)NC(=O)[C@@H]2CSSC[C@@H]3NC(=O)[C@H](CO)NC(=O)CNC(=O)[C@H](CC(=O)O)NC(=O)[C@H]([C@@H](C)O)NC(=O)[C@H](C(C)C)NC(=O)[C@H](CC(N)=O)NC(=O)[C@H](Cc4ccc(O)cc4)NC(=O)[C@H](Cc4c[nH]c5ccccc45)NC(=O)[C@H](Cc4c[nH]c5ccccc45)NC(=O)[C@H](CCCNC(=N)N)NC(=O)[C@@H]4CCCN4C(=O)[C@H](CCSC)NC(=O)[C@H](CO)NC(=O)[C@H](C)NC(=O)[C@H](CCCNC(=N)N)NC(=O)[C@H](CSSC[C@H](NC(=O)CNC(=O)CNC(=O)[C@H](Cc4ccc(O)cc4)NC(=O)[C@H](C(C)C)NC(=O)[C@H](Cc4ccccc4)NC(=O)[C@H](CC(C)C)NC(=O)[C@H](CCC(N)=O)NC3=O)C(=O)N[C@@H](CC(=O)O)C(=O)NCC(=O)N[C@@H](CC(N)=O)C(=O)N[C@@H](CO)C(=O)N[C@@H](CC(N)=O)C(=O)N[C@@H](CC(N)=O)C(=O)N[C@@H](Cc3ccc(O)cc3)C(=O)N[C@@H](CC(C)C)C(=O)N[C@@H]([C@@H](C)O)C(=O)N[C@@H](CCCCN)C(=O)N[C@@H](CCC(=O)O)C(=O)N[C@@H](CCC(=O)O)C(=O)N2)NC(=O)[C@H](CCCNC(=N)N)NC(=O)CNC(=O)[C@H](C(C)C)NC(=O)[C@H](C(C)C)NC(=O)[C@H](CCCCN)NC(=O)[C@H](CO)NC(=O)[C@H](C(C)C)NC(=O)[C@H](CC(C)C)NC1=O` [bikunin (7-64)]?
A: Ki [1]: 0.4 nM; Ki [2]: > 100 nM; pI ([3]; first preparation of bikunin (7-64) (possibly not completely deprotected), migrated to the cathodic edge of the gel (pH 9.5)): much higher than the predicted value; pI ([3]; refolded purified protein, Ampholine PAGplate (pH 3.5 to 9.5)): 8.85
